Source: patent US8557770B2, “Method of preventing or reducing scarring of human skin” (Pharmecosse Ltd., priority 2000, dated 2013)

Assays:
[1] = system: fibroblast cultures from normal skin; test: In vitro myofibroblast differentiation assay (α-smooth muscle actin staining), normal skin fibroblasts; type: cell-based, human; details: GF depleted medium + 5 μg/ml, 14 days
From the text: (§1) One of the most important cell types in both normal and pathological scar formation is the myofibroblast. These cells, which differentiate from the unwounded tissue cell type (fibroblasts), are responsible for laying down scar tissue. Indeed myofibroblasts remain present in hypertrophic scars up to four years after the original wounding event. An in vitro assay was accordingly developed to identify actives which prevent or reduce myofibroblast formation and thus identify actives which are effective in reducing and/or preventing scar tissue formation.
(§2) Fibroblast cultures were initiated from normal skin, normal scars, hypertrophic scars (HTS) and burns scars.
Each culture was split into seven parts (A to G) and grown in the following different growth media: […]
(§3) The fibroblasts were grown in these media (which was replenished twice weekly) for fourteen days, fixed and stained immunohistochemically using an antibody specific for α-smooth muscle actin (a marker of myofibroblasts). […] The number of these was counted, as was the total number of cells present, and the proportion of myofibroblasts was then calculated. In this manner, the number of myofibroblasts present in each culture was determined as a percentage of the total number of cells in the culture population.

[2] = system: dermal fibroblast cell lines; test: Myofibroblast number in dermal fibroblast cell lines in GFD medium with PPAR agonist; type: cell-based, human; details: 1 IU/ml insulin alone, 14 days
From the text: Dermal fibroblast cell lines were derived from 3 patients and seeded individually onto sterile coverslips. […] Medium was refreshed twice weekly and cultures were harvested for immunohistochemical staining for α-smooth muscle actin after 14 days. The number of myofibroblasts was counted and calculated as a percentage of the total cells present, and since the ability of each cell line to differentiate into myofibroblasts varied extensively, the results were normalised as follows. Results are expressed as the mean percentage reduction in myofibroblast number for each treatment as compared to the proportion of myofibroblasts identified in GFD medium alone for that cell line. The error bars represent plus or minus one standard deviation.

[3] = system: murine incisional wounds (myofibroblasts); test: Murine incisional wound healing model, α-smooth muscle actin staining score; type: in vivo, male BALB/c mice
From the text: After general anesthesia, both posterior flanks on male BALB/c mice were shaved and cleaned with chlorhexidine in spirit. Two 1.5 cm wounds were marked (one in each flank) parallel to the spine with permanent marker. Full thickness incisions were made along these marks down to the level of the chest wall. Both lateral skin flaps were dissected from the underlying chest wall and the wound assessed from hemorrhage. The wound edges were then infiltrated with test substance or vehicle only control, as appropriate, by injection into the wound edges. Insulatard® was diluted in normal saline (0.9%) to give a final test solution of 1 IU/ml. 0.15 ml of this test solution (0.15 IU) was applied to one of the test wounds and saline alone was applied to the contralateral wound on the same animal. Wounds were closed with interrupted 5/0 Prolene® suture. Mice were recovered from the anesthetic individually and housed in groups of 4. […]
The wounds were analysed in the following manner: The comparison of the actual severity of scarring is impossible in this and all other animal models, since in contrast to human wounds, animal wounds are rapidly closed by way of swift epidermal contraction leaving minimal areas of scarring in any case. We therefore attempted to judge the efficacy of insulin in vivo on its ability to affect the number of myofibroblasts present using immunohistochemical staining methods for the myofibroblast marker, α smooth muscle actin. To allow semi-quantitative analysis of the resulting staining, a visual grading system was developed. Scars were assessed and allocated a score depending on the intensity of alpha smooth muscle actin staining within each section. […] Each scar was assessed at a number (minimum of 3) points along its length and the intensity was scored and averaged for each section to allow comparisons between treatments. Two independent assessors assessed the scoring blindly. The number of wounds assessed for each experimental group was 8. […]

[4] = system: fibroblast cultures from normal scars; test: In vitro myofibroblast differentiation assay (α-smooth muscle actin staining), normal scar fibroblasts; type: cell-based, human
From the text: as §1, §2
(§4) Each culture was split into seven parts (A to G) and grown in the following different growth media:
(§5) (A) was grown in normal growth medium (hereinafter referred to as NGM) which consisted of Dulbecco's modified Eagles Medium (DMEM) plus 10% Foetal Calf Serum (FCS);
(§6) (B) was grown in growth factor depleted medium (hereinafter referred to as GF depleted) which is NGM that is depleted of active polypeptide growth factors including TGFP. It is prepared by treating FCS with a reducing agent in order to attack and cleave the disulphide bonds that determine the conformation and thus the biological activity of the polypeptide growth factors;
(§7) (D) (D1-D4) were grown in growth factor depleted medium plus 1 ng/ml-100 ng/ml of insulin-like Growth Factor-I) (IGF-I) (hereinafter referred to as GF depleted+IGF-I); (E) (E1-E3) were grown in growth factor depleted medium plus 50 ng/ml-[…] of insulin-like Growth Factor II (IGF-II) (hereinafter referred to as GF depleted+IGFII); (F) (F1F3) were grown in growth factor depleted medium plus 25 ng/ml to 100 ng/ml of basic fibroblast growth factor (bFGF) (hereinafter referred to as GF depleted and bFGF); […]
as §3
(§8) Fibroblast cultures were initiated from normal scars (NS) and hypertrophic scars (HTS). […] The number of myofibroblasts was calculated as a percentage of the total cell population and the results are shown in FIGS. 1 and 2 of the drawings.
(§9) Fibroblasts cultures were initiated from normal and hypertrophic scars. […] The number of myofibroblasts were counted and calculated as a percentage of the total cells present.

[5] = system: fibroblast cultures from hypertrophic scars (HTS); test: In vitro myofibroblast differentiation assay (α-smooth muscle actin staining), hypertrophic scar fibroblasts; type: cell-based, human
From the text: as §1, §2, §4, §5, §6, §7, §3, §8, §9

[6] = system: fibroblast cultures from burns scars; test: In vitro myofibroblast differentiation assay (α-smooth muscle actin staining), burns scar fibroblasts; type: cell-based, human; details: 14 days
From the text: as §1, §2, §4, §5, §6
(D) (D1-D4) were grown in growth factor depleted medium plus 1 ng/ml-100 ng/ml of insulin-like Growth Factor-I) (IGF-I) (hereinafter referred to as GF depleted+IGF-I); (E) (E1-E3) were grown in growth factor depleted medium plus 50 ng/ml-[…] of insulin-like Growth Factor II (IGF-II) (hereinafter referred to as GF depleted+IGFII); (F) (F1F3) were grown in growth factor depleted medium plus 25 ng/ml to 100 ng/ml of basic fibroblast growth factor (bFGF) (hereinafter referred to as GF depleted and bFGF);
(G) (G1-G3) were grown in growth factor depleted medium plus 25 ng/ml to 100 ng/ml of platelet derived growth factor (PDGF) (hereinafter referred to as GF depleted+PDGF).
The fibroblasts were grown in these media (which was replenished twice weekly) for fourteen days, fixed and stained immunohistochemically using an antibody specific for α-smooth muscle actin (a marker of myofibroblasts). The stain caused α-smooth muscle actin to fluoresce green and accordingly cells that had stained green were identified as myofibroblasts. The number of these was counted, as was the total number of cells present, and the proportion of myofibroblasts was then calculated. In this manner, the number of myofibroblasts present in each culture was determined as a percentage of the total number of cells in the culture population.

[7] = system: murine incisional scars; details: 1 dose of insulin (Day 0), harvested after 14 days, n=4
Description: Scars were wrapped in saline soaked swabs and transported immediately to the laboratory for testing. Each scar was dissected into 2 equal strips (perpendicular to the line of the scar), each of which was measured using a Nikon Shadowmeter. The strip of tissue was mounted on the tensiometer, with the scar mounted at 6 mm from the jaws of the clamps. Traction was applied across the scar at a constant rate of 10 mm/minute, and the force required for disruption of the scar measured. Stress values were calculated by normalising load values to cross-sectional area of each specimen and are given in units of MPa.

## Insulin: polypeptide hormone; in vivo and Example 9 tests used Insulatard diluted in saline
[1]
  Number of myofibroblasts - percentage of total cell population: 5.26 percentage of total cell popul
[2]
  Mean percentage reduction in myofibroblast number compared to GFD medium alone: 76.6%
[3]; 0.15 IU Insulatard injected into wound edges, day 14, 8 wounds
  Mean score of α-smooth muscle actin staining (out of maximum of 3): 0.486
[3]; single dose 0.15 IU on day 0, day 14 after wounding (FIG. 4)
  Myofibroblast score: dropping down to normal
[3]; single dose 0.15 IU on day 0, maximum reached over first 7 days (FIG. 4)
  Maximum myofibroblast score: 1.92
[4]; GF depleted medium + 5 μg/ml, 14 days
  Number of myofibroblasts - percentage of total cell population: 6.14 percentage of total cell popul
[4]; NGM plus 5 μg/ml insulin plus 0.5 ng/ml TGFβ1, 5 days
  Effect on induction of myofibroblast differentiation by active TGFβ1: no effect on the rapid induction of myofibroblast differentiation
[5]; HTS fibroblasts, GF depleted medium + 5 μg/ml, 14 days
  Number of myofibroblasts - percentage of total cell population: 3.23 percentage of total cell popul
[5]; hypertrophic scar fibroblasts, NGM plus 5 μg/ml insulin plus 0.5 ng/ml TGFβ1, 5 days
  Effect on induction of myofibroblast differentiation by active TGFβ1: no effect on the rapid induction of myofibroblast differentiation
[6]; GF depleted medium + 10 ng/ml
  Number of myofibroblasts - percentage of total cell population: 16.44 percentage of total cell popul
[6]; GF depleted medium + 100 ng/ml
  Number of myofibroblasts - percentage of total cell population: 15.91 percentage of total cell popul
[6]; GF depleted medium + 5 μg/ml
  Number of myofibroblasts - percentage of total cell population: 8.20 percentage of total cell popul
[7]
  Median wound breaking strength: 1.62 MPa
